Results from patent US8518715B2, “Bifunctional polyazamacrocyclic chelating agents” (Nordion (Canada) Inc., priority 2006, dated 2013).

Experiments:
Type in all cases: physicochemical
[1] = Effect of [ligand]/[111In3+] on the percent complexation
Experimental: (§1) A polyazamacrocyclic ligand ((L)-p-NO2-Bz-PCTA; (D)-p-NO2-Bz-PCTA; (L)-p-NCS-Bz-PCTA; (±)-p-NO2-Bz-DOTA, (±)-NPCTA, (±)-OXO and (L)-p-NO2-Bz-OXO) was combined with a metal ion (^90Y^3+, ^111In^3+, ^177Lu^3+) at room temperature in buffer at a molar ratio of the ligand to the metal ion of 100:1 for kinetic studies, 200:1 for stability studies or at values ranging from 2:1 to 200:1 for the molar ratio studies.
(§2) Complexation studies involving ^90Y^3+ and ^111In^3+ were conducted with 50-100 mM sodium acetate buffer, pH 5.0-7.0, while complexation studies involving ^177Lu^3+ were performed with 50 mM-100 mM sodium acetate buffer, pH 4-5.
(§3) 1 μL samples were taken at 10 minute intervals for kinetic studies, after 60 minutes in experiments studying the effect of the value of [ligand]/[metal ion] on the % complexation of the ligand, and at spaced intervals of 1-3 days for experiments studying the stability of complexes formed using the ligand of the present invention. […] The silica gel paper is cut in half and each half is measured in a gamma well counter. […] Each result shown in FIGS. 4-9 is the average of three separate trials.

[2] = Kinetics of complexation of polyazamacrocyclic ligand with 111In3+; conditions: ^111In^3+; for initial rate / kinetics of complexation (in words): ligand:metal 100:1, room temperature
Experimental: as §1, §2, §3

[3] = Effect of [ligand]/[177Lu3+] on the percent complexation
Experimental: as §1, §2, §3

[4] = Kinetics of complexation of polyazamacrocyclic ligand with 90Y3+; conditions: ^90Y^3+; for initial rate / kinetics of complexation (in words): ligand:metal 100:1, room temperature; for percent complexation of metal ion (in words): ligand:metal 100:1
Experimental: as §1, §2, §3

[5] = Kinetics of complexation of polyazamacrocyclic ligand with 177Lu3+; conditions: ^177Lu^3+; for time after which the maximum percent of complexation was observed / percent complexation of metal ion (in words): ligand:metal 100:1; for initial rate / kinetics of complexation (in words): ligand:metal 100:1, room temperature; for percent complexation after 10 minutes: ligand:metal 100:1, 10 minutes
Experimental: as §1, §2, §3

[6] = Effect of [ligand]/[90Y3+] on the percent complexation
Experimental: as §1, §2, §3

[7] = molar ratio of ligand/^111In^3+ of 5:1, after 60 minutes

percent complexation [1, 7] [%] | percent complexation of metal ion (in words) [4] | percent complexation of metal ion (in words) [5] | percent complexation after 10 minutes [5] [%] | SMILES | initial rate / kinetics of complexation (in words) [2] | initial rate / kinetics of complexation (in words) [4] | time after which the maximum percent of complexation was observed [5] [min] | initial rate / kinetics of complexation (in words) [5] | also measured
~76 |  |  |  | COc1ccc([N+](=O)[O-])cc1C(C(=O)O)N1CCN(CC(=O)O)Cc2cccc(n2)CN(CC(=O)O)CC1 (racemic) [(±)-NPCTA, 2,2′-(6-(carboxy(2-methoxy-5-nitrophenyl)methyl)-3,6,9,15-tetraazabicyclo[9.3.1]pentadeca-1(15),11,13-triene-3,9-diyl)diacetic acid] | relatively slower | relatively slower | 50 | relatively slower | percent complexation ([3]; molar ratio of ligand/^177Lu^3+ of greater than 20:1, after 60 minutes): < 95%; percent complexation ([6]; molar ratio of ligand/^90Y^3+ of greater than 20:1, after 60 minutes): < 90%
 | highest | highest | ~95 | O=C(O)CN1CCOCCN(CC(=O)O)CCN(CC(=O)O)CC1 (racemic) [(±)-OXO, 2,2′,2″-(1-oxa-4,7,10-triazacyclododecane-4,7,10-triyl)triacetic acid] | fastest |  |  |  | 
~94 | highest | highest | ~95 | O=C(O)CN1CCN(CC(=O)O)CCN(CC(=O)O)C(Cc2ccc([N+](=O)[O-])cc2)CN(CC(=O)O)CC1 (racemic) [(±)-p-NO2-Bz-DOTA, 2,2′,2″,2′″-(2-(4-nitrobenzyl)-1,4,7,10-tetraazacyclododecane-1,4,7,10-tetrayl)tetraacetic acid] |  |  | 40 |  | percent complexation ([1]; molar ratio of ligand/^111In^3+ of greater than 20:1, after 60 minutes): ≤ 95%; maximum values of complexation after 40 minutes ([2]; ligand:metal 100:1, after 40 minutes): ~89%
 | highest | highest |  | O=C(O)CN1CCOCCN(CC(=O)O)[C@@H](Cc2ccc([N+](=O)[O-])cc2)CN(CC(=O)O)CC1 [(L)-p-NO2-Bz-OXO, (S)-2,2′,2″-(5-(4-nitrobenzyl)-1-oxa-4,7,10-triazacyclododecane-4,7,10-triyl)triacetic acid] | fastest |  |  | fastest | 

SMILES | percent complexation [1, 7] [%] | percent complexation of metal ion (in words) [4] | percent complexation of metal ion (in words) [5] | percent complexation after 10 minutes [5] [%] | initial rate / kinetics of complexation (in words) [2] | initial rate / kinetics of complexation (in words) [4] | time after which the maximum percent of complexation was observed [5] [min] | initial rate / kinetics of complexation (in words) [5] | also measured
O=C(O)CN1CCN(CC(=O)O)C[C@@H](Cc2ccc([N+](=O)[O-])cc2)N(CC(=O)O)Cc2cccc(n2)C1 [(D)-p-NO2-Bz-PCTA, 2,2′,2″-((4R)-4-(4-nitrobenzyl)-3,6,9,15-tetraazabicyclo[9.3.1]pentadeca-1(15),11,13-triene-3,6,9-triyl)triacetic acid] |  |  |  | ~91 |  |  |  |  | percent complexation ([1]; molar ratio of ligand/^111In^3+ of 10:1, after 60 minutes): ~95%; percent complexation ([6]; molar ratio of ligand/^90Y^3+ of 10:1, after 60 minutes): ~95%
O=C(O)CN1CCN(CC(=O)O)C[C@H](Cc2ccc([N+](=O)[O-])cc2)N(CC(=O)O)Cc2cccc(n2)C1 [(L)-p-NO2-Bz-PCTA, 2,2′,2″-((4S)-4-(4-nitrobenzyl)-3,6,9,15-tetraazabicyclo[9.3.1]pentadeca-1(15),11,13-triene-3,6,9-triyl)triacetic acid] |  | highest | highest |  |  | fastest |  | fastest | percent complexation after 10 minutes ([2]; ligand:metal 100:1, 10 minutes): ~95%; percent complexation ([3]; molar ratio of ligand/^177Lu^3+ of 5:1, after 60 minutes): ~95%; percent complexation after 10 minutes ([4]; ligand:metal 100:1, 10 minutes): 95%
